Results: patent publication US9096599B2, “Spiroindoline compounds” (Intervet Inc., priority 2011, dated 2015)
Read-outs that look alike come from different tables or passages of the source.

Tested on: Ascaridia galli (L3) and Oesophagostumum dentatum (L3 and L4) larvae
Assay: In vitro anthelmintic larval test, minimum effective concentration by microscopic examination
Type: cell-based
Conditions: read-out: minimum effective concentration (MEC)
Protocol: C: Biological Examples Efficacy Against Ascaridia galli and Oesophagostomum dentatum
Anthelmintic effects of compounds of this invention (numbers refer to compound numbers in Table I) were tested in vitro using gut-welling larval stages of two parasitic nematode species: Ascaridia galli (intestinal roundworm of chicken), larval stage 3 (“L3”); and Oesophagostumum dentatum (nodular worm of swine), larval stages 3 and 4 (respectively “L3” and “L4”). When conducting these experiments, DMSO-solutions of various concentrations of compounds of this invention were prepared and incubated in 96-well microtiter plates. The parasites were then distributed at 20 larvae per well. The anthelmintic effects were classified by microscopic examination. The microscopic examination included assessing mortality, damage, motility, progression of development, and neutral red uptake by the larvae in comparison to a DMSO-control.

[1] = activity against one or both of the nematodes (A. galli L3; O. dentatum L3, L4), 96-well plates, 20 larvae per well, vs DMSO-control

`Cc1cc(C(=O)N2CC3(CCN(C/C=C/c4ccc(F)cc4)CC3)c3cc(Sc4ccc(F)cc4)ccc32)cc(Cl)n1` [Compound 36, (2-chloro-6-methyl-4-pyridyl)-[1′-[(E)-3-(4-fluorophenyl)allyl]-5-(4-fluorophenyl)sulfanyl-spiro[indoline-3,4′-piperidine]-1-yl]methanone] was tested, and the minimal effective concentration [1] was ≤ 50 µM.

For `Cc1cc(C(=O)N2CC3(CCN(C/C=C/c4ccc(Cl)c(Cl)c4)CC3)c3cc(Sc4ccc(F)cc4)ccc32)cc(Cl)n1` [Compound 24, (2-chloro-6-methyl-4-pyridyl)-[1′-[(E)-3-(3,4-dichlorophenyl)allyl]-5-(4-fluorophenyl)sulfanyl-spiro[indoline-3,4′-piperidine]-1-yl]methanone], the minimal effective concentration [1] was ≤ 50 µM.

In the case of `Cc1cc(C(=O)N2CC3(CCN(C/C=C/c4ccc(C)c(C)c4)CC3)c3cc(Sc4ccc(F)cc4)ccc32)ccn1` [Compound 16, [1′-[(E)-3-(3,4-dimethylphenyl)allyl]-5-(4-fluorophenyl)sulfanyl-spiro[indoline-3,4′-piperidine]-1-yl]-(2-methyl-4-pyridyl)methanone], the minimal effective concentration [1] is reported as ≤ 50 µM.

`Cc1cc(C(=O)N2CC3(CCN(C/C=C/c4ccc(Cl)cc4Cl)CC3)c3cc(Sc4ccc(F)cc4)ccc32)cc(Cl)n1` [Compound 30, (2-chloro-6-methyl-4-pyridyl)-[1′-[(E)-3-(2,4-dichlorophenyl)allyl]-5-(4-fluorophenyl)sulfanyl-spiro[indoline-3,4′-piperidine]-1-yl]methanone] was tested, and the minimal effective concentration [1] was ≤ 50 µM.

For `Cc1ccc(/C=C/CN2CCC3(CC2)CN(C(=O)c2ccnc(Cl)c2)c2ccc(Sc4ccc(F)cc4)cc23)c(C)c1` [Compound 20, (2-chloro-4-pyridyl)-[1′-[(E)-3-(2,4-dimethylphenyl)allyl]-5-(4-fluorophenyl)sulfanyl-spiro[indoline-3,4′-piperidine]-1-yl]methanone], the minimal effective concentration [1] was ≤ 50 µM.

`O=C(c1ccnc(Cl)c1)N1CC2(CCN(C/C=C/c3ccccc3)CC2)c2cc(Sc3ccc(F)cc3)ccc21` [Compound 11, (2-chloro-4-pyridyl)-[1′-[(E)-cinnamyl]-5-(4-fluorophenyl)sulfanyl-spiro[indoline-3,4′-piperidine]-1-yl]methanone] was tested, and the minimal effective concentration was ≤ 50 µM.

For `Cc1cc(C(=O)N2CC3(CCN(C/C=C/c4ccc(F)cc4F)CC3)c3cc(Sc4ccc(F)cc4)ccc32)cc(Cl)n1` [Compound 39, (2-chloro-6-methyl-4-pyridyl)-[1′-[(E)-3-(2,4-difluorophenyl)allyl]-5-(4-fluorophenyl)sulfanyl-spiro[indoline-3,4′-piperidine]-1-yl]methanone], the minimal effective concentration [1] was ≤ 50 µM.

With `Cc1ccc(/C=C/CN2CCC3(CC2)CN(C(=O)c2cc(C)nc(Cl)c2)c2ccc(Sc4ccc(F)cc4)cc23)cc1` [Compound 18, (2-chloro-6-methyl-4-pyridyl)-[5-(4-fluorophenyl)sulfanyl-1′-[(E)-3-(p-tolyl)allyl]spiro[indoline-3,4′-piperidine]-1-yl]methanone] the minimal effective concentration [1] was ≤ 50 µM.

In the case of `O=C(c1ccnc(Cl)c1)N1CC2(CCN(C/C=C/c3ccc(F)cc3)CC2)c2cc(Sc3ccc(F)cc3)ccc21` [Compound 35, (2-chloro-4-pyridyl)-[1′-[(E)-3-(4-fluorophenyl)allyl]-5-(4-fluorophenyl)sulfanyl-spiro[indoline-3,4′-piperidine]-1-yl]methanone], the minimal effective concentration [1] is reported as ≤ 50 µM.

With `Cc1cc(C(=O)N2CC3(CCN(C/C=C/c4ccccc4)CC3)c3cc(Sc4ccc(F)cc4)ccc32)ccn1` [Compound 13, [1′-[(E)-cinnamyl]-5-(4-fluorophenyl)sulfanyl-spiro[indoline-3,4′-piperidine]-1-yl]-(2-methyl-4-pyridyl)methanone] the minimal effective concentration was ≤ 50 µM.

In the case of `O=C(c1ccnc(Cl)c1)N1CC2(CCN(C/C=C/c3ccc(Cl)cc3)CC2)c2cc(Sc3ccc(F)cc3)ccc21` [Compound 26, [1′-[(E)-3-(4-chlorophenyl)allyl]-5-(4-fluorophenyl)sulfanyl-spiro[indoline-3,4′-piperidine]-1-yl]-(2-chloro-4-pyridyl)methanone], the minimal effective concentration [1] is reported as ≤ 50 µM.

In the case of `O=C(c1ccnc(Cl)c1)N1CC2(CCN(C/C=C/c3ccc(Cl)c(Cl)c3)CC2)c2cc(Sc3ccc(F)cc3)ccc21` [Compound 23, (2-chloro-4-pyridyl)-[1′-[(E)-3-(3,4-dichlorophenyl)allyl]-5-(4-fluorophenyl)sulfanyl-spiro[indoline-3,4′-piperidine]-1-yl]methanone], the minimal effective concentration [1] is reported as ≤ 50 µM.

In the case of `Cc1cc(C(=O)N2CC3(CCN(C/C=C/c4ccc(Cl)c(Cl)c4)CC3)c3cc(Sc4ccc(F)cc4)ccc32)ccn1` [Compound 25, [1′-[(E)-3-(3,4-dichlorophenyl)allyl]-5-(4-fluorophenyl)sulfanyl-spiro[indoline-3,4′-piperidine]-1-yl]-(2-methyl-4-pyridyl)methanone], the minimal effective concentration [1] is reported as ≤ 50 µM.

`Cc1ccc(/C=C/CN2CCC3(CC2)CN(C(=O)c2cc(C)nc(Cl)c2)c2ccc(Sc4ccc(F)cc4)cc23)c(C)c1` [Compound 21, (2-chloro-6-methyl-4-pyridyl)-[1′-[(E)-3-(2,4-dimethylphenyl)allyl]-5-(4-fluorophenyl)sulfanyl-spiro[indoline-3,4′-piperidine]-1-yl]methanone] was tested, and the minimal effective concentration [1] was ≤ 50 µM.

`Cc1ccc(/C=C/CN2CCC3(CC2)CN(C(=O)c2ccnc(Cl)c2)c2ccc(Sc4ccc(F)cc4)cc23)cc1C` [Compound 14, (2-chloro-4-pyridyl)-[1′-[(E)-3-(3,4-dimethylphenyl)allyl]-5-(4-fluorophenyl)sulfanyl-spiro[indoline-3,4′-piperidine]-1-yl]methanone] was tested, and the minimal effective concentration [1] was ≤ 50 µM.

For `Cc1ccc(/C=C/CN2CCC3(CC2)CN(C(=O)c2ccnc(Cl)c2)c2ccc(Sc4ccc(F)cc4)cc23)cc1` [Compound 17, (2-chloro-4-pyridyl)-[5-(4-fluorophenyl)sulfanyl-1′-[(E)-3-(p-tolyl)allyl]spiro[indoline-3,4′-piperidine]-1-yl]methanone], the minimal effective concentration [1] was ≤ 50 µM.

`Cc1cc(C(=O)N2CC3(CCN(C/C=C/c4ccc(F)c(F)c4)CC3)c3cc(Sc4ccc(F)cc4)ccc32)cc(Cl)n1` [Compound 33, (2-chloro-6-methyl-4-pyridyl)-[1′-[(E)-3-(3,4-difluorophenyl)allyl]-5-(4-fluorophenyl)sulfanyl-spiro[indoline-3,4′-piperidine]-1-yl]methanone] was tested, and the minimal effective concentration [1] was ≤ 50 µM.

In the case of `Cc1cc(C(=O)N2CC3(CCN(C/C=C/c4ccc(F)c(F)c4)CC3)c3cc(Sc4ccc(F)cc4)ccc32)ccn1` [Compound 34, [1′-[(E)-3-(3,4-difluorophenyl)allyl]-5-(4-fluorophenyl)sulfanyl-spiro[indoline-3,4′-piperidine]-1-yl]-(2-methyl-4-pyridyl)methanone], the minimal effective concentration [1] is reported as ≤ 50 µM.

In the case of `Cc1cc(C(=O)N2CC3(CCN(C/C=C/c4ccc(Cl)cc4)CC3)c3cc(Sc4ccc(F)cc4)ccc32)ccn1` [Compound 28, [1′-[(E)-3-(4-chlorophenyl)allyl]-5-(4-fluorophenyl)sulfanyl-spiro[indoline-3,4′-piperidine]-1-yl]-(2-methyl-4-pyridyl)methanone], the minimal effective concentration [1] is reported as ≤ 50 µM.

In the case of `Cc1cc(C(=O)N2CC3(CCN(C/C=C/c4ccc(F)cc4F)CC3)c3cc(Sc4ccc(F)cc4)ccc32)ccn1` [Compound 40, [1′-[(E)-3-(2,4-difluorophenyl)allyl]-5-(4-fluorophenyl)sulfanyl-spiro[indoline-3,4′-piperidine]-1-yl]-(2-methyl-4-pyridyl)methanone], the minimal effective concentration [1] is reported as ≤ 50 µM.
